Tests used:
[1] = pharmacokinetic screening by oral cassette dosing in mice; conditions: blood pharmacokinetic profile, Figure S3
in vivo = conditions: male, CFW, mouse, po, 5 mg/kg
Human sEH = target: T1, Human sEH (Homo sapiens, UniProt P34913); conditions: for improved potency over compound 40: versus compound 40, reached the LOQ of the in vitro assay
T1 sequence (P34913 1-555): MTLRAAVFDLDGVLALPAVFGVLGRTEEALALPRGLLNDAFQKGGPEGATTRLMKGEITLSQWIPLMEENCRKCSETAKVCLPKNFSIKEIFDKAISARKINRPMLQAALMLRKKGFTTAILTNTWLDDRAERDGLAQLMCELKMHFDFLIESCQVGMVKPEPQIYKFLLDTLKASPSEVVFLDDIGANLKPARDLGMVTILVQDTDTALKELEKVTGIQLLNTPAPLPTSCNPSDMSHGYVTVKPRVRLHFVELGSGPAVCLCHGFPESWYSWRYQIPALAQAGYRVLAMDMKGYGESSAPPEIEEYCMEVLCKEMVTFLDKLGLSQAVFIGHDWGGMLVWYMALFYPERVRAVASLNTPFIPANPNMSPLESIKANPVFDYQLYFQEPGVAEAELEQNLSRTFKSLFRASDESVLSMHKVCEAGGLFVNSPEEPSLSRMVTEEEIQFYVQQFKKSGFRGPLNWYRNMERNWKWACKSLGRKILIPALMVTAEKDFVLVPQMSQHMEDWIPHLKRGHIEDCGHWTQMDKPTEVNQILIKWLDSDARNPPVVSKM

murine sEH = target: T2, murine sEH (Mus musculus, UniProt P34914); assay: fluorescent
T2 sequence (P34914 1-554): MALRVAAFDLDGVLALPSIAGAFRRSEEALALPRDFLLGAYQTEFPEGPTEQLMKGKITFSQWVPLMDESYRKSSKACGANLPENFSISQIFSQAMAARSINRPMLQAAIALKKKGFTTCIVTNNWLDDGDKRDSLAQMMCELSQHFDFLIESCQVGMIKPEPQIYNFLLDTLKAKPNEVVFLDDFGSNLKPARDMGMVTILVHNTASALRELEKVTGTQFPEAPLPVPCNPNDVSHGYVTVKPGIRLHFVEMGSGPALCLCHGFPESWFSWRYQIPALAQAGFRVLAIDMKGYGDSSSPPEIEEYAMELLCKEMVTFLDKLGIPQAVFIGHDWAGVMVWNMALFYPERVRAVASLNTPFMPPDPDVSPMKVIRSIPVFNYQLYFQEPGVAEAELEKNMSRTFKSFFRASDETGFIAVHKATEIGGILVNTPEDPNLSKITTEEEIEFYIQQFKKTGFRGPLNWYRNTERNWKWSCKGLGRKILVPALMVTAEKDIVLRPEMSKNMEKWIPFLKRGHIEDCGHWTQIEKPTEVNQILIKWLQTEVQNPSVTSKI

[2] = test system: carrageenan induced inflammatory pain; type: in vivo, Male Sprague-Dawley rats; conditions: for reversal of carrageenan induced pain (mechanical withdrawal threshold): rats, intraplantar, 3 hr after carrageenan, sEHi 10 ng/paw, morphine 10,000 ng/paw, n=6
hydrolytic stability = type: physicochemical

Question: Which AUC [1] does the source give for `CC(=O)N1CCC(NC(=O)NC23CC4CC(CC(C4)C2)C3)CC1` [APAU] here?
Answer: small

Question: And the halflife [1]?
Answer: very short

Question: For `O=C(O)CCCCCCCCCCCNC(=O)NC12CC3CC(CC(C3)C1)C2` [AUDA, 12-(3-adamantane-1-yl-ureido)dodecanoic acid, reference compound], which AUC(0-t) (in vivo) is on record?
Answer: 0.05 µM·h

Question: With `CCC(=O)N1CCC(NC(=O)Nc2ccccc2)CC1` [Compound 7] as the compound, how does the “drop in potency against the human enzyme versus cyclohexyl compound 4” value (Human sEH; versus compound 4) read?
Answer: 11 fold

Question: Which results are given for `CCC(=O)N1CCC(NC(=O)Nc2cccc(F)c2)CC1` [Compound 28]?
Answer: lower IC50 than para-fluorophenyl 24, murine enzyme (murine sEH; versus compound 24): 5 fold; lower IC50 than para-fluorophenyl 24, human enzyme (Human sEH; versus compound 24): 2 fold

Question: For `O=C(Nc1ccc(OC(F)(F)F)cc1)NC1CCN(C(=O)C2CC2)CC1` [Compound 52, 1-(1-(cyclopropanecarbonyl)piperidin-4-yl)-3-(4-(trifluoromethoxy)phenyl)urea], which “improvement from AUDA, exposure in murine blood and murine potency data” value (murine sEH; Figure S5, versus AUDA) is on record?
Answer: 10^5

Question: And the AUC(0-t) (in vivo)?
Answer: 164 µM·h

Question: What about the Cmax (in vivo) of the same compound?
Answer: 8.9 µM

Question: What about the Tmax (in vivo) of the same compound?
Answer: 3.17 h

Question: What about the half-life (in vivo) of the same compound?
Answer: 19.7 h

Question: What about the “increase in potency over adamantane analogue 2” value (Human sEH; versus compound 2) of the same compound?
Answer: 7 fold

Question: What about the “improved potency over compound 40” value (Human sEH) of the same compound?
Answer: approximately 9 fold

Question: And the “increase in potency compared to morphine, reducing hyperalgesia” value ([2]; mechanical withdrawal threshold, carrageenan model)?
Answer: 1000 fold

Question: What about the “reversal of carrageenan induced pain (mechanical withdrawal threshold)” value [2] of the same compound?
Answer: significantly reversed carrageenan induced pain

Question: Which results are given for `O=C(Nc1ccc(OC(F)(F)F)cc1)NC1CCN(C(=O)C(F)(F)F)CC1` [Compound 53]?
Answer: hydrolytic stability (hydrolytic stability): hydrolytic instability; improved potency over compound 40 (Human sEH): approximately 9 fold

Question: Which “reversal of carrageenan induced pain (mechanical withdrawal threshold)” value [2] does the source give for `CN1CC[C@]23c4c5ccc(O)c4O[C@H]2[C@@H](O)C=C[C@H]3[C@H]1C5` [morphine, reference compound] here?
Answer: significantly reversed carrageenan induced pain
